Values joined by “and” are separate entries in the source; they are usually repeats but may differ in a detail not shown here. Equal values may be shown once. “Also recorded” adds a separate entry of the source. Read-outs that look alike come from different tables or passages of the source.
Experiments:
Nurr1 LBD = Nurr1 LBD (Homo sapiens, UniProt P43354); assay: HTRF assay of Nurr1 LBD homodimerization; type: biochemical
[1] = molecular target: T1, human Nurr1 ligand binding domain (LBD) fused to the Gal4 DNA binding domain (Homo sapiens, UniProt P43354); assay: Hybrid Gal4-Nurr1 reporter gene assay in transiently transfected HEK293T cells; type: cell-based; settings: for fold act. (maximum Nurr1 activation vs. DMSO (0.1 %)): purified compounds, mean±S.E.M., n≥3
[2] = molecular target: T1, human Nurr1 ligand binding domain (LBD) fused to the Gal4 DNA binding domain; settings: for comparison; cited from earlier work

T1 sequence (P43354 360-595 limits assumed): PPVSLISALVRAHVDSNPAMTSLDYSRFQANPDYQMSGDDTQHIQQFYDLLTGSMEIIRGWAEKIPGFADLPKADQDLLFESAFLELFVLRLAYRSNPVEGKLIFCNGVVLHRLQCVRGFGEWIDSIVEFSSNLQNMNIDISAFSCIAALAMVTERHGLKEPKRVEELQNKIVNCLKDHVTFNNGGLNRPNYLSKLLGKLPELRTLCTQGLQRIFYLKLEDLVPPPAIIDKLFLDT
Sequence of Nurr1 LBD (P43354 360-595 limits assumed): as above

Row | Structure (SMILES) | effect on Nurr1 LBD homodimerization (HTRF) (Nurr1 LBD) | EC50 [1] [µM] | fold act. (maximum Nurr1 activation vs. DMSO (0.1 %)) [1] [fold] | fold act. (maximum Nurr1 activation vs. DMSO (0.1 %)) [2]
1 | Clc1ccc(-c2ccc(CNc3ccnc4cc(Cl)ccc34)o2)cc1 [3 j, 7‐Chloro‐N‐((5‐(4‐chlorophenyl)furan‐2‐yl)methyl)quinolin‐4‐amine] | diminished dimerization; also recorded: diminished Nurr1 homodimerization | 8 ± 1 | 2.5±0.1 | 
2 | CCN(CC)Cc1cc(Nc2ccnc3cc(Cl)ccc23)ccc1O [AQ, amodiaquine] |  |  |  | 3.6 fold and 3.6±0.1 fold
3 | CCN(CC)CCCC(C)Nc1ccnc2cc(Cl)ccc12 (stereo not shown) [CQ, chloroquine] |  |  |  | 2.0±0.1 fold
4 | Nc1ccnc2cc(Cl)ccc12 [compound 3, 4‐Amino‐7‐chloroquinoline] |  |  |  | 2.5 fold and 2.5±0.4 fold
5 | O=C(Nc1ccnc2cc(Cl)ccc12)c1ccc(-c2ccc(Cl)cc2)o1 [compound 4, 5‐(4‐Chlorophenyl)‐N‐(7‐chloroquinolin‐4‐yl)furan‐2‐carboxamide] |  | 3 ± 0.1 | 2.0±0.1 | 
6 | Clc1ccc(-c2ccc(CN3CCOc4cc(Cl)ccc43)o2)cc1 [compound 5, 7‐Chloro‐4‐((5‐(4‐chlorophenyl)furan‐2‐yl)methyl)‐3,4‐dihydro‐2H‐benzo[b][1,4]oxazine] |  | 47 ± 13 | 2.0±0.2 | 

From publication PMC9305750 (Chemmedchem, 2022)
